Test results: EP1433789A1, “Pyrrolopyrazines and their use as selective apoptosis inducers” (Aponetics AG, priority 2002, dated 2004)

How the values were obtained:
Jurkat [1] = test: PI staining for cell cycle distribution; format: cell-based, human; design: key: 0 indicates no occurrence at all; 1 for weak; 2 for strong occurrence; conditions: Jurkat 3 uM, 24 h
Procedure: (§1) 1 - 2*10^5 cells are seeded into 24 well tissue culture plates and incubated for 24 h prior to compound addition. Compounds are added for 24 h in a final concentration of 3 µM or 10 µM. Adherent cells are harvested by trypsinization. The cell suspensions are fixed by adding 2 parts ice cold ethanol 100% while vortexing. Then the samples are stored for > 2 h at-20°C. Subsequently the cells are washed with PBS once and resuspended in 250 µl PBS containing 50 µg/ml PI (Calbiochem # 537059), then the samples are incubated at 37°C for 30 minutes and subsequently analyzed on a FACSCalibur™ monitoring linear PI fluorescence activity on FL2.. The readout allows the detection of a possible direct or indirect influence of the tested compounds on the cell cycle. The following events can occur: a) Generation of a subG1 peak indicative for DNA fragmentation, b) increase of the cell population arrested in G2M phase. Both events are scored by 1 for weak and 2 for strong occurrence. 0 indicates no occurrence at all. […]

HeLa [2] = test: PI staining for cell cycle distribution; format: cell-based, human; design: key: 0 indicates no occurrence at all; 1 for weak; 2 for strong occurrence; conditions: HeLa 10 µM, 24 h
Procedure: as §1

Jurkat [3] = test: AnnexinV/7-AAD staining; format: cell-based, human; conditions: 10 µM, 24 h treatment
Summary of the method: (§2)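 Cells treated with compound at 10 µM final for 24 h, then stained with AnnexinV-GST/anti-GST Alexa 488 and 7-AAD and analysed by flow cytometry. Percent positive cells scored as 0 (<10%), 1 (10–50%) or 2 (>50%).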

HeLa [4] = test: AnnexinV/7-AAD staining; format: cell-based, human; conditions: 10 µM, 24 h treatment
Summary of the method: as §2

Ramos = test: AnnexinV/7-AAD staining; format: cell-based, human; conditions: 10 µM, 24 h treatment
Summary of the method: as §2

Jurkat [5] = test: MTS proliferation assay; format: cell-based; conditions: Homo sapiens, 72 h incubation
Procedure: (§3) The assay is performed in 96 well tissue culture plates. The cells (range : 1.5*10^3-10^4) are seeded out in 80 µl complete medium 24 h prior to compound treatment. The test compounds are added in 20 µl complete medium containing max 5% DMSO. The final compound concentrations in the assays are 10 µM, 3 µM,1 µM and 0.3 µM, respectively. The assay plates are incubated for 72 h at culture conditions. The MTS reagent is prepared according to the manufacturer's protocol (Promega G1111 ). 20 µl MTS reagent are added to each well, the assay plates are quickly spun and incubated for another 3 h at culture conditions. Subsequently, the plates are shortly shaked and absorption measured with a microplate-reader at 492 nm.

K562 = test: MTS proliferation assay; format: cell-based; conditions: Homo sapiens, K562, 72 h incubation
Procedure: as §3

HeLa [6] = test: MTS proliferation assay; format: cell-based; conditions: Homo sapiens, 72 h incubation
Procedure: as §3

Jurkat [7] = test: BrdU incorporation (proliferation); format: cell-based, human; design: key: 0 for no activity; 1 for a moderate inhibition; 2 for strong inhibition of proliferation; conditions: 48 h
Procedure: (§4) Adherent cells are seeded out at 2 - 4*10^4 cells/well/ml in 24 well tissue culture plates 24 h prior to treatment. Suspension cells are seeded out at 2*10^5 cells/ml/well in 24 well plates. Compounds are added leading to final concentrations of 3 µM and 10 µM, respectively. Subsequently, BrdU (Molecular Probes #B-23151) at 10 µM final concentration is added and the plates are incubated for 48 h. After the incubation cells are processed according to standard procedures. The detection of the incorporated BrdU is done with the anti-bromodeoxyuridine Mab PRB-1, Alexa Fluor 660 conjugate (Molecular Probes #A-21306). The analysis is performed on a FACSCalibur™ by monitoring the fluorescence activity on FL3. The readout reflects DNA synthesis which is a hallmark for proliferation. The scores are defined the following: 0 for no activity, 1 for a moderate inhibition and 2 for strong inhibition of proliferation. Table 7 indicates inhibitory activities of several tested compounds on proliferation.

HeLa [8] = test: BrdU incorporation (proliferation); format: cell-based, human; design: key: 0 for no activity; 1 for a moderate inhibition; 2 for strong inhibition of proliferation; conditions: 48 h
Procedure: as §4

A20 = test: AnnexinV/7-AAD staining; format: cell-based, mouse; conditions: A20, 10 µM, 24 h treatment
Summary of the method: as §2

SMILES | IC50 (Jurkat [5]) [µM] | IC50 (K562) [µM] | IC50 (HeLa [6]) [µM] | G2M (increase of the cell population arrested in G2M phase) (Jurkat [1]) | subG1 (generation of a subG1 peak indicative for DNA fragmentation) (Jurkat [1]) | G2M (increase of the cell population arrested in G2M phase) (HeLa [2]) | subG1 (generation of a subG1 peak indicative for DNA fragmentation) (HeLa [2]) | percentage of positively stained cells (AnnexinV/7-AAD staining) (Jurkat [3]) | percentage of positively stained cells (AnnexinV/7-AAD staining) (HeLa [4]) | percentage of positively stained cells (AnnexinV/7-AAD staining) (Ramos) | BrdU incorporation (inhibition of proliferation) (Jurkat [7]; 3uM) | BrdU incorporation (inhibition of proliferation) (Jurkat [7]; 10uM) | BrdU incorporation (inhibition of proliferation) (HeLa [8]; 3uM) | BrdU incorporation (inhibition of proliferation) (HeLa [8]; 10uM) | percentage of positively stained cells (AnnexinV/7-AAD staining) (A20)
CCC1Cc2cc(OC)c(OC)cc2-c2cc3nc4ccccc4nc3n21 (centres unmarked) [compound 13] | 1 to 10 | > 10 | > 10 | 0 | 0 | 0 | 0 | 2 (score 2 relates to more than 50% positivity) | 1 (score 1 relates to more than 10% but less than 50%) | 2 (score 2 relates to more than 50% positivity) | 2 | 2 | 1 |  | 2 (score 2 relates to more than 50% positivity)
CC1(C)Cc2ccccc2-c2c(Br)c3nc4ccccc4nc3n21 [No. 2, 13-Bromo-6,6-dimethyl-5,6-dihydro-6a,7,12-triaza-dibenzo[a,h]fluorene] |  |  |  |  |  |  |  | 2 (score 2 relates to more than 50% positivity) | 1 (score 1 relates to more than 10% but less than 50%) | 2 (score 2 relates to more than 50% positivity) |  |  |  |  | 2 (score 2 relates to more than 50% positivity)

The next lines start with results.

IC50 (Jurkat [5]) [µM] | IC50 (K562) [µM] | IC50 (HeLa [6]) [µM] | SMILES | G2M (increase of the cell population arrested in G2M phase) (Jurkat [1]) | subG1 (generation of a subG1 peak indicative for DNA fragmentation) (Jurkat [1]) | G2M (increase of the cell population arrested in G2M phase) (HeLa [2]) | subG1 (generation of a subG1 peak indicative for DNA fragmentation) (HeLa [2]) | percentage of positively stained cells (AnnexinV/7-AAD staining) (Jurkat [3]) | percentage of positively stained cells (AnnexinV/7-AAD staining) (HeLa [4]) | percentage of positively stained cells (AnnexinV/7-AAD staining) (Ramos) | BrdU incorporation (inhibition of proliferation) (Jurkat [7]; 3uM) | BrdU incorporation (inhibition of proliferation) (Jurkat [7]; 10uM) | BrdU incorporation (inhibition of proliferation) (HeLa [8]; 3uM) | BrdU incorporation (inhibition of proliferation) (HeLa [8]; 10uM) | percentage of positively stained cells (AnnexinV/7-AAD staining) (A20)
> 10 | > 10 | > 10 | COc1cc2c(cc1OC)-c1c(Cl)c3nc4ccccc4nc3n1C(C)C2 (centres unmarked) [compound 12] | 0 | 0 | 0 | 0 | 2 (score 2 relates to more than 50% positivity) | 2 (score 2 relates to more than 50% positivity) | 2 (score 2 relates to more than 50% positivity) | 2 | 2 | 1 | 1 | 2 (score 2 relates to more than 50% positivity)
> 10 | > 10 | > 10 | CC1Cc2ccccc2-c2c(Cl)c3nc4ccccc4nc3n21 (centres unmarked) [compound 11] | 0 | 0 | 0 | 0 | 0 (Score 0 relates to less than 10%) | 1 (score 1 relates to more than 10% but less than 50%) | 2 (score 2 relates to more than 50% positivity) | 0 | 2 | 1 |  | 1 (score 1 relates to more than 10% but less than 50%)
> 10 | > 10 | 1 to 10 | COc1cc2c(cc1OC)-c1c(Br)c3nc4ccccc4nc3n1C(C)C2 (centres unmarked) [compound 10] | 0 | 0 | 0 | 0 | 2 (score 2 relates to more than 50% positivity) | 2 (score 2 relates to more than 50% positivity) | 2 (score 2 relates to more than 50% positivity) | 2 | 1 | 0 | 0 | 1 (score 1 relates to more than 10% but less than 50%)
